In ChEMBL document CHEMBL3351476, “The discovery of I-BET726 (GSK1324726A), a potent tetrahydroquinoline ApoA1 up-regulator and selective BET bromodomain inhibitor” (J Med Chem, 2014):
In brackets after ≈: the same amount, converted by molar mass. Activity calls are given as the source filed them. The rule behind the calls is not given here.

Key:
[1] = target: Bromodomain-containing protein 2 (Homo sapiens, UniProt P25440); assay: Displacement of biotinylated tetra-acetylated histone H4 from His6-tagged BRD2 (1 to 473 aa) (unknown origin) after 1 hr by TR-FRET assay
Sequence of Bromodomain-containing protein 2 (P25440 whole entry, the tested form may be a part): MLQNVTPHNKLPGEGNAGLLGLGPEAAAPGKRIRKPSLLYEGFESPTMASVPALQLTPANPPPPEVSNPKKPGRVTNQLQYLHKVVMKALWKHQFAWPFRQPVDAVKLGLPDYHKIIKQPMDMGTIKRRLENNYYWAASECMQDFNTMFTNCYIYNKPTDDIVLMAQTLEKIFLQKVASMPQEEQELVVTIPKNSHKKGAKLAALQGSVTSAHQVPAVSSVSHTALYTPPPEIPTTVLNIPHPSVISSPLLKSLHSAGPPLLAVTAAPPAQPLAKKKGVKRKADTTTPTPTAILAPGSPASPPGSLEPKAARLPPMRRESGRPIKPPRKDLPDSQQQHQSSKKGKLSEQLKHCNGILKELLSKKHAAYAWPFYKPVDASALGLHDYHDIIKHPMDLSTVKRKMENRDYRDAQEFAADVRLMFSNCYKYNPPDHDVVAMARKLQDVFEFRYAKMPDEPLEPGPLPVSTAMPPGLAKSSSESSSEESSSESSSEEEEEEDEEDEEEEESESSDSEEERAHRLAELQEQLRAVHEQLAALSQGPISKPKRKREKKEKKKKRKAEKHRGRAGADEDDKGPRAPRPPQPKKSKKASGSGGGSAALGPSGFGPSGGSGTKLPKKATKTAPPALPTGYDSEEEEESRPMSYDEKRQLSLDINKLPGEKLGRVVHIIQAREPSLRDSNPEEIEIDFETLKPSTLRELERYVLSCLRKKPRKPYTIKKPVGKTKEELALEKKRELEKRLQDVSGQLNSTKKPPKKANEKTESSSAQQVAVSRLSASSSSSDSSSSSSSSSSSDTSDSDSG

[2] = target: Bromodomain-containing protein 3 (Homo sapiens, UniProt Q15059); assay: Displacement of biotinylated tetra-acetylated histone H4 from His6-tagged BRD3 (1 to 475 aa) (unknown origin) after 1 hr by TR-FRET assay
Sequence of Bromodomain-containing protein 3 (Q15059 whole entry, the tested form may be a part): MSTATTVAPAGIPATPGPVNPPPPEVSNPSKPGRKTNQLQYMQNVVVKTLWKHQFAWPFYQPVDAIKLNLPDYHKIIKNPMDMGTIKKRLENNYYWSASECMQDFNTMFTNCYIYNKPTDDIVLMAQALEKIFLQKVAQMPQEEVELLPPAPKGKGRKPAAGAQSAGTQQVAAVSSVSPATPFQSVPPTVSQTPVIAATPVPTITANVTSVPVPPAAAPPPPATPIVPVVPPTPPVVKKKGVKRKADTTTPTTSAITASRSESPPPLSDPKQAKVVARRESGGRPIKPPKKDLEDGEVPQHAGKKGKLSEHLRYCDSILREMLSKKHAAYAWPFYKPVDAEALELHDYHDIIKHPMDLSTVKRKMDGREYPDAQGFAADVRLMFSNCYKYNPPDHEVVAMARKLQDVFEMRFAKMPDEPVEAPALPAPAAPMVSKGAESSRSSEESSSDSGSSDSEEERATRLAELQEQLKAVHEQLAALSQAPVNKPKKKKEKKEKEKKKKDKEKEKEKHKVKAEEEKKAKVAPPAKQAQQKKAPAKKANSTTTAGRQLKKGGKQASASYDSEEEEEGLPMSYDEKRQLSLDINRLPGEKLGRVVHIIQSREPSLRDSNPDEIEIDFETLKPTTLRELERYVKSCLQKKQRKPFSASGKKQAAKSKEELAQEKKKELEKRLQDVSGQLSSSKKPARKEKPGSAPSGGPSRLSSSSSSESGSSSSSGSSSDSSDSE

[3] = target: Bromodomain-containing protein 4 (Homo sapiens, UniProt O60885); assay: Displacement of biotinylated tetra-acetylated histone H4 from His6-tagged BRD4 (1 to 477 aa) (unknown origin) after 1 hr by TR-FRET assay
[4] = system: HepG2; assay: Upregulation of ApoA1 in human HepG2 cells after 16 hrs by luciferase reporter assay relative to control; type: functional
[5] = Solubility of the compound in fasted state simulated intestinal fluid at 125 ug/ml after 16 hrs by HPLC analysis; type: ADME; details: fasted state simulated intestinal fluid
[6] = system: HepG2; assay: Upregulation of ApoA1 in human HepG2 cells at 1.25 uM after 16 hrs by luciferase reporter assay relative to control; type: functional
[7] = system: Mus musculus; assay: Antiinflammatory activity in Balb/c mouse assessed as inhibition of LPS-induced PAI-1 mRNA expression in liver administered orally 2 hrs before LPS challenge measured after 2 hrs; type: functional, organism-based
[8] = system: Mus musculus; assay: Antiinflammatory activity in Balb/c mouse assessed as inhibition of LPS-induced PAI-1 mRNA expression in liver at 3 mg/kg, po 2 hrs before LPS challenge measured after 2 hrs; type: functional, organism-based; set-up: dose 3 mg/kg
[9] = system: HepG2; assay: Upregulation of ApoA1 in human HepG2 cells at 10 uM after 16 hrs by luciferase reporter assay relative to control; type: functional

Compound	IC50 [1] [nM]	IC50 [2] [nM]	IC50 [3] [nM]	pEC170 [4]	solubility at 16 h [5] [µg/mL]	fold change (FC) [6]	inhibition [7]	inhibition [8]	fold change (FC) [9]
CC(=O)N1c2ccc(-c3ccc(CN4CCCCC4)cc3)cc2[C@H](N)C[C@@H]1C (racemic)	50100	25100	25100	<5	–	–	–	–	–
COc1cccc(N[C@@H]2C[C@H](C)N(C(C)=O)c3ccc(-c4ccc(C#N)cc4)cc32)c1 (racemic)	1580	794	1000	6.7	–	–	–	–	–
CC(=O)N1c2ccc(-c3ccc(CN4CCCCC4)cc3)cc2[C@H](Nc2ccccc2)C[C@@H]1C (racemic)	–	–	–	7.9	111 (≈ 245 µM)	–	–	–	–
CC(=O)N1c2ccc(-c3cccc(C(=O)O)c3)cc2[C@H](Nc2ccc(Cl)cc2)C[C@@H]1C (racemic)	794	501	794	7.4	–	–	–	–	–
CC(=O)N1c2ccc(-c3ccc(CN4CCOCC4)cc3)cc2[C@H](Nc2ccccc2)C[C@@H]1C (racemic)	794	631	501	7.6	107 (≈ 235 µM)	–	–	–	–
CC(=O)N1c2ccc(-c3ccc(CO)cc3)cc2[C@H](Nc2ccccc2)C[C@@H]1C (racemic)	794	501	501	7.5	73 (≈ 189 µM)	–	–	–	–
COc1ccc(-c2ccc3c(c2)[C@H](Nc2ccccc2)C[C@H](C)N3C(C)=O)cc1 (racemic)	1260	631	631	7.2	92 (≈ 238 µM)	–	–	–	–
CC(=O)N1c2ccc(-c3ccc(CN4CCCCC4)cc3)cc2[C@H](Nc2ccc(Cl)cc2)C[C@@H]1C (racemic)	1000	1260	1000	8	–	–	–	–	–
CC(=O)N1c2ccc(-c3ccc(C(=O)O)cc3)cc2[C@H](Nc2ccc(Cl)cc2)C[C@@H]1C (racemic)	398	398	–	7.8	–	–	–	–	–
CC(=O)N1c2ccccc2[C@H](Nc2ccccc2)C[C@@H]1C (racemic)	–	–	–	–	–	1.7	–	–	–
CC(=O)N1c2ccc(-c3ccc(C#N)cc3)cc2[C@H](Nc2ccccc2)C[C@@H]1C (racemic)	1000	794	631	7	57 (≈ 149 µM)	–	–	–	–
COC(=O)c1ccc(-c2ccc3c(c2)[C@H](Nc2ccc(S(C)(=O)=O)cc2)C[C@H](C)N3C(C)=O)cc1 (racemic)	1260	501	631	6	–	–	–	–	–
CC(=O)N1c2ccc(-c3ccc(C(=O)O)cc3)cc2[C@H](Nc2ccc(Cl)cc2)C[C@@H]1C	–	–	–	–	–	–	Dose-dependent effect	Active	–
CCC(=O)N1c2ccccc2C(Nc2ccccc2)CC1C (mixture of isomers)	–	–	–	–	–	1.6	–	–	1.4
CC(=O)N1c2ccc(-c3cccc(CN4CCCCC4)c3)cc2[C@H](Nc2ccccc2)C[C@@H]1C (racemic)	1260	398	794	7.1	99 (≈ 218 µM)	–	–	–	–
CC(=O)N1c2ccc(-c3ccccc3C)cc2[C@H](Nc2ccc(Cl)cc2)C[C@@H]1C (racemic)	3980	2510	3980	5.6	–	–	–	–	–
CCCC(=O)N1c2ccccc2C(Nc2ccccc2)CC1C (mixture of isomers)	–	–	–	–	–	–	–	–	<=1.1
COc1cccc(N[C@@H]2C[C@H](C)N(C(C)=O)c3ccc(-c4ccc(C(=O)O)cc4)cc32)c1 (racemic)	631	501	501	7.3	–	–	–	–	–
CC(=O)N1c2ccc(-c3ccc(C#N)cc3)cc2[C@H](Nc2cccc(F)c2)C[C@@H]1C (racemic)	1260	794	1000	6.8	–	–	–	–	–

Compound	IC50 [1] [nM]	IC50 [2] [nM]	IC50 [3] [nM]	pEC170 [4]	solubility at 16 h [5] [µg/mL]	fold change (FC) [6]	inhibition [7]	inhibition [8]	fold change (FC) [9]
CC(=O)N1c2ccc(-c3ccc(CN4CCCCC4)cc3)cc2[C@@H](Nc2ccccc2)C[C@H]1C	25100	25100	25100	5.9	–	–	–	–	–
CC(=O)N1c2ccc(-c3ccc(C(=O)O)cc3)cc2[C@H](Nc2ccccc2)C[C@@H]1C (racemic)	631	398	501	7.3	118 (≈ 295 µM)	–	–	–	–
COC(=O)c1ccc(-c2ccc3c(c2)[C@H](Nc2ccccc2)C[C@H](C)N3C(C)=O)cc1 (racemic)	1260	1000	1260	7.4	69 (≈ 166 µM)	–	–	–	–
CC(=O)N1c2ccc(-c3ccc(C(=O)O)cc3)cc2[C@H](Nc2ccc(C)cc2)C[C@@H]1C	200	158	251	8	–	–	–	–	–
CC(=O)N1c2ccccc2C(Nc2ccccc2)CC1C (mixture of isomers)	–	–	–	–	–	1.7	–	–	2.3
CC(=O)N1c2ccc(-c3ccccc3)cc2[C@H](Nc2ccccc2)C[C@@H]1C (racemic)	794	501	794	7	–	–	–	–	–
CC(=O)N1c2ccc(-c3ccc(CN4CCCCC4)cc3)cc2[C@H](NC=O)C[C@@H]1C (racemic)	15800	6310	6310	5.3	–	–	–	–	–
COc1ccccc1N[C@@H]1C[C@H](C)N(C(C)=O)c2ccc(-c3ccc(C(=O)O)cc3)cc21 (racemic)	631	501	631	7.6	–	–	–	–	–
COC(=O)c1cccc(-c2ccc3c(c2)[C@H](Nc2ccc(Cl)cc2)C[C@H](C)N3C(C)=O)c1 (racemic)	2000	1000	1000	7.2	–	–	–	–	–
CC(=O)N1c2ccc(-c3ccc(C(F)(F)F)cc3)cc2[C@H](Nc2ccccc2)C[C@@H]1C (racemic)	2000	1260	1000	6.2	–	–	–	–	–
COC(=O)c1ccc(-c2ccc3c(c2)[C@H](Nc2ccc(C(C)(C)C)cc2)C[C@H](C)N3C(C)=O)cc1 (racemic)	501	501	631	6.9	–	–	–	–	–
CC(=O)N1c2ccc(-c3ccc(C(=O)O)cc3)cc2[C@H](Nc2ccc(S(C)(=O)=O)cc2)C[C@@H]1C (racemic)	1000	316	316	5.4	–	–	–	–	–
COC(=O)c1ccc(-c2ccc3c(c2)[C@H](Nc2ccc(F)cc2)C[C@H](C)N3C(C)=O)cc1 (racemic)	1580	1000	794	7.3	–	–	–	–	–
CC(=O)N1c2ccc(-c3ccc(C(N)=O)cc3)cc2[C@H](Nc2ccc(Cl)cc2)C[C@@H]1C (racemic)	794	398	501	7.8	–	–	–	–	–
COc1ccc(-c2ccc3c(c2)[C@H](Nc2ccccc2)CCN3C(C)=O)cc1 (racemic)	6310	1580	2510	6.1	–	–	–	–	–
CCCCC(=O)N1c2ccccc2C(Nc2ccccc2)CC1C (mixture of isomers)	–	–	–	–	–	–	–	–	<=1.1
CC(=O)N1c2ccc(-c3ccc(C(=O)O)cc3)cc2[C@H](Nc2ccc(C)cc2)C[C@@H]1C (racemic)	501	316	631	7.8	–	–	–	–	–
CC(=O)N1c2ccccc2[C@@H](Nc2ccc(C)cc2)C[C@@H]1C (racemic)	–	–	–	–	–	1.1	–	–	–
CC(=O)N1c2ccccc2[C@@H](Nc2ccc(C)cc2)C[C@H]1C (racemic)	–	–	–	–	–	1.7	–	–	–
